Data as given in patent US20240271089A1, “METHODS TO GENERATE MACULAR, CENTRAL AND PERIPHERAL RETINAL PIGMENT EPITHELIAL CELLS” (THE U.S.A., as represented by the Secretary, Department of …, priority 2021, published 2024).
Entries after “also recorded” stand apart in the source; their conditions may differ.

How the values were obtained:
[1] = test system: iPSC-RPE; assay: iPSC-RPE cell area morphometry (REShAPE) after compound treatment; type: cell-based; conditions: compared with macular (P1) and peripheral (P3) human RPE and the DMSO control
Protocol: FIG. 13. Testing different concentrations of AGN 193109 and endo-IWR-1 to reproduce macular (P1), central (P2) and peripheral (P3) cells. A range of concentrations of AGN 193109 and endo-IWR-1 were tested that could be used to reproduce macular, central and peripheral RPE populations (labeled P1, P2 and P3, respectively). Population 1 (P1, macular cells) can be reproduced with […] of AGN 193109. Population 3 (P3, peripheral) can be reproduced with 1 mM-4 mM of endo-IWR-1. A gradient of AGN 193109 and endo-IWR-1 could be used to replicate human RPE population 2 (P2, central)—central RPE cells. In one example, this can be reproduced with 25 nM-50 nM of AGN 193109 and 0.1 mM-0.5 mM of endo-IWR-1. Boxplots relative to DMSO, P1, P2 and P3 are plotted on the left side of the graph as a reference for cell size comparison. Five concentrations were tested for AGN 193109 and endo-IWR-1.
Screening of Compound Library and Imaging: 115 drugs targeting various developmental pathways or cytoskeletal stressors were selected to form a new developmental library of compounds. The drugs are either activators or inhibitors of various signaling pathways and target proteins at different levels of the signaling cascades. For each drug, an initial concentration was selected, and adjustments made to the concentration of each drug. The assays were performed on iPSC-derived committed RPE. For every drug, the concentration was lowered if toxicity was detected or increased if there was no evident effect on cell morphology in comparison to control. The list of compounds tested can be found in Table 1. The high-content screening was performed in 384-well plates (cat #6057300, Perkin Elmer) using a range of 3 different concentrations (3×, 1×, 0.3×). All drugs were reconstituted in dimethyl sulfoxide (DMSO, cat #D2650, Sigma) and 40 ul of each drug was aliquoted in triplicate in a 384-well master plate. Serial dilutions with RPEGM were then performed to obtain the final desired working concentrations and the final plates were stored at −80° C. […]

[2] = test system: iPSC-RPE; assay: Trans-epithelial electrical resistance (TER) of treated iPSC-RPE monolayer; type: cell-based, human; conditions: for TER relative to cutoff / epithelial barrier integrity, in words: cutoff of 400 ohm*cm^2; for trans-epithelial electrical resistance (TER): fully mature iPSC-RPE, minimum threshold 400 Ωcm^2, DMSO around 1100 Ωcm^2
Protocol: (§1) Different techniques were used to study RPE morphologic features.
At this point the trans-epithelial electrical resistance (TER) was assayed to confirm the quality of differentiation and examine the effect of drugs on tight junction integrity. The minimum threshold of 400 Ωcm^2 for epithelial resistance per unit area is used to determine good batches of differentiation.
Trans-epithelial electrical resistance (TER) is a measure of the tightness of the monolayer. The tighter the monolayer, the healthier are the cells in the monolayer. A cutoff of 400 ohm*cm^2 was used to exclude cells with low TER. […] The range specifies 90% of the data.

[3] = test system: iPSC-RPE; assay: Scanning electron microscopy of apical processes of treated iPSC-RPE; type: cell-based, human; conditions: for type of apical processes enriched: SEM, DMSO control shows both petal and finger-like types
Protocol: FIG. 11. Defining petal (undulated) and finger-like apical processes. The transversal section of apical processes was measured to precisely define their shape. Petal-like apical processes, obtained by treating RPE cells with AGN 193109, have an average transversal length of 1.68 μm (length min 0.5, max 4 μm) and width of 0.20 μm (width min 0.1, max 1 μm). The petal-like apical processes are also wavy along their length. The width of the undulation ranges from 0.2 to 2 μm. Finger-like apical processes, obtained by treating RPE cells with endo-IWR-1, are cylindrical and have the same average transversal length and width of 0.23 μm (min 0.1, max 1 microns). An example of how measurements of the apical processes was done is shown for each type of apical processed.
as §1
(§2) Finally, transmission electron microscopy (TEM) was used to detect fine morphological alterations, whereas scanning electron microscopy (SEM) was essential to study modifications in apical processes structures. […] In DMSO-treated iPSC-RPE we found both types of apical processes, petal and finger-like.

[4] = test system: iPSC-RPE; assay: Pigmentation (brightfield), gross (H&E) and fine (TEM) morphology of treated iPSC-RPE; type: cell-based, human; conditions: for gross cell morphology: H&E staining; for gross cell morphology / pigmentation levels / fine intracellular structure: AGN 193109 0.2 μM, endo-IWR-1 4 uM; for pigmentation levels: brightfield imaging, compared with DMSO; for fine intracellular structure: transmission electron microscopy; for effect on iPSC-RPE health / healthy RPE phenotype: verified by TER, brightfield, H&E and TEM
Text: as §1
Brightfield imaging was used to determine RPE pigmentation defects, while hematoxylin and eosin (H&E) staining was valuable to inspect gross morphologic alterations of the monolayer. A section of transwell membrane was cut and mounted on a glass slide for brightfield imaging. Pigmentation levels were preserved after ENDO-1-IWR and AGN 193109 treatments as compared to DMSO-treated iPSC-RPE.
as §2
AGN 193109 was used at 0.2.μM and endo-IWR-1 at 4 uM. Both agents were dissolved in DMSO, so that the final concentration of DMSO was not more than 0.1%. The final concentration of DMSO control was 0.1%. The compounds were added in RPE maturation medium until cells were mature. Gross cell morphology was also analyzed (FIGS. 15B, 15E, and 15F, left image) to detect possible abnormalities. Fine intracellular structures were examined for alterations with transmission electron microscopy (TEM, FIGS. 15B, 15E, and 15F, right image).

[5] = test system: iPSC-RPE; assay: Acid phosphatase activity in lysates of treated RPE cells (p-nitrophenyl phosphate); type: cell-based, human; conditions: compared with DMSO- or endo-IWR-1-treated cells
Protocol: Acid phosphatase has higher expression in the macula (Boulton et al., The British Journal of Ophthalmology 78 (2), 125-9, doi: 10.1136/bjo.78.2.125 (1994)). This enzyme has an important role in photoreceptor outer segment digestion. The acid phosphatase activity was determined in cells treated with DMSO, AGN 193109 or endo-IWR-1. For these studies, RPE cells were lysed in distilled water to extract the enzyme. The lysates were then incubated with p-nitrophenyl phosphate, a phosphatase substrate that turns yellow when dephosphorylated by acid phosphatase. The color of the solution was measured with a spectrophotometer to estimate the enzyme activity.

[6] = test system: iPSC-RPE cells; assay: Phagocytosis test with labelled bovine outer segments, flow cytometry; type: cell-based, human; conditions: purified bovine outer segments, 4 hours, One-way ANOVA showed no difference
Protocol: iPSC-RPE cells were provided purified bovine outer segment (mostly rod photoreceptors) to phagocytose. The outer segments were labelled with a dye that fluoresces when the outer segments are phagocytosed. RPE cells were incubated for 4 hours with outer segments and then analyzed with flow cytometry to measure outer segment ingestion, or put back in the incubator for 20 hours before performing flow cytometry to measure outer segment digestion.

For `Cc1ccc(C2=CCC(C)(C)c3ccc(C#Cc4ccc(C(=O)O)cc4)cc32)cc1` [AGN 193109, 4-[2-[5,6-Dihydro-5,5-dimethyl-8-(4-methylphenyl)-2-naphthalenyl]ethynyl]-benzoic acid], which “human RPE population whose cell size is reproduced by treated iPSC-RPE” value [1] is on record?
The value was “comparable to the dimension of macular RPE population (P1)”.

And the “TER relative to cutoff / epithelial barrier integrity, in words” value [2]?
Its value is “well above the threshold; also recorded: well above this threshold”.

What about the “trans-epithelial electrical resistance (TER)” value [2] of the same compound?
The value was ~1600 Ωcm^2.

And the “type of apical processes enriched” value [3]?
Its value is “enriched RPE cells with petal-like apical processes (with undulation)”.

And the “average transversal width of apical processes” value ([3]; transversal section, FIG. 11)?
The value was 0.20 μm.

What about the gross cell morphology [4] of the same compound?
Its gross cell morphology is “no gross morphological alterations were detected; also recorded: nor did they affect gross or fine cell morphology”.

And the pigmentation levels [4]?
The pigmentation levels was “preserved; also recorded: did not alter pigmentation levels”.

And the fine intracellular structure [4]?
Its fine intracellular structure is “no fine intracellular structure defects were identified; also recorded: nor did they affect gross or fine cell morphology”.

What about the “effect on iPSC-RPE health / healthy RPE phenotype” value [4] of the same compound?
The value was “not disruptive of iPSC-RPE health; also recorded: did not affect the healthy RPE phenotype”.

What about the acid phosphatase activity [5] of the same compound?
The acid phosphatase activity was “higher acid phosphatase activity”.

For `O=C(Nc1cccc2cccnc12)c1ccc(N2C(=O)C3C4C=CC(C4)C3C2=O)cc1` (stereo not drawn) [endo-IWR-1, 4-(1,3,3a,4,7,7a-Hexahydro-1,3-dioxo-4,7-methano-2H-isoindol-2-yl)-N-8-quinolinyl-Benzamide], which “human RPE population whose cell size is reproduced by treated iPSC-RPE” value [1] is on record?
The value was “peripheral”.

What about the “human RPE population whose cell size is reproduced by treated iPSC-RPE” value ([1]; listed as ENDO-1-IWR) of the same compound?
The value was “comparable to cells of peripheral RPE population P3”.

And the “TER relative to cutoff / epithelial barrier integrity, in words” value [2]?
The value was “well above the threshold; also recorded: well above this threshold”.

What about the “trans-epithelial electrical resistance (TER)” value [2] of the same compound?
Its value is ~1200 Ωcm^2.

What about the “type of apical processes enriched” value [3] of the same compound?
Its value is “enriched cells with finger-like apical processes”.

What about the “type of apical processes enriched” value ([3]; listed as ENDO-1-IWR) of the same compound?
The value was “all RPE cells were enriched uniquely by finger-like apical processes”.

What about the “average transversal length of apical processes” value ([3]; transversal section, FIG. 11) of the same compound?
Its value is 0.23 μm.

And the “average transversal width of apical processes” value ([3]; transversal section, FIG. 11)?
Its value is 0.23 μm.

What about the gross cell morphology [4] of the same compound?
The gross cell morphology was “nor did they affect gross or fine cell morphology”.

What about the gross cell morphology ([4]; listed as ENDO-1-IWR) of the same compound?
Its gross cell morphology is “no gross morphological alterations were detected”.

What about the pigmentation levels [4] of the same compound?
Its pigmentation levels is “did not alter pigmentation levels”.

And the pigmentation levels ([4]; listed as ENDO-1-IWR)?
The pigmentation levels was “preserved”.

And the pigmentation levels ([4]; listed as Endo-IWR-1)?
The pigmentation levels was “did not alter pigmentation levels”.

What about the fine intracellular structure [4] of the same compound?
Its fine intracellular structure is “nor did they affect gross or fine cell morphology”.

What about the fine intracellular structure ([4]; listed as ENDO-1-IWR) of the same compound?
Its fine intracellular structure is “no fine intracellular structure defects were identified”.

What about the “effect on iPSC-RPE health / healthy RPE phenotype” value ([4]; listed as ENDO-1-IWR) of the same compound?
Its value is “not disruptive of iPSC-RPE health; also recorded: did not affect the healthy RPE phenotype”.

What about the outer segment ingestion [6] of the same compound?
The outer segment ingestion was “ingest (peripheral cells) more outer segments”.
